Common to all, as to format: cell-based
One assay deals with HL-7702. As to the kind of experiment: MTT cytotoxicity assay, HL-7702 normal cells. Particulars: L02, 48 h, normal human cells, mean ± SD, three independent experiments. The procedure: [The source words this procedure for another cell line and reports this cell line under the same test.] (§1) The in vitro cytotoxic potency of DHAA acyl-thiourea derivatives 8a–8o and 9a–9o were evaluated by 3-(4,5-dimethylthiazol-2-yl)-2,5-diphenyltetrazolium bromide (MTT) assay against HeLa, SK-OV-3 and MGC-803 tumor cell lines, with 5-FU as the positive control.
(§2) General procedure for cytotoxic evaluation in vitro: HeLa, HepG2, SK-OV-3 and MGC-803 cells were seeded into 96-well microculture plates and allowed to adhere for 24 h, respectively. After cells were exposed to compounds at concentrations from 100 to 0.01 μM for 48 h, medium was aspirated and replenished with complete medium. IC50 was evaluated by MTT tetrazolium dye assay. Each experiment was performed three times; Statistical analysis: All statistical analysis was performed with SPSS Version 10 (SPSS, Chicago, IL, USA). Data was analyzed by one-way ANOVA. Mean separations were performed using the least significant difference method. Each experiment was replicated thrice, and all experiments yielded similar results. Measurements from all the replicates were combined, and treatment effects were analyzed.
In general terms: Tetrazolium assays rely on reduction of a dye to a coloured formazan, in cell work by metabolically active cells.

The next assay concerns SK-OV-3. In words: MTT cytotoxicity assay, SK-OV-3. Particulars: Homo sapiens, 48 h, mean ± SD, three independent experiments. The procedure:
as §1, §2

A further assay deals with MGC-803. In words: MTT cytotoxicity assay, MGC-803. Particulars: Homo sapiens, 48 h, mean ± SD, three independent experiments. The procedure: as §1, §2
The next assay relates to HeLa. In words: MTT cytotoxicity assay, HeLa. Particulars: Homo sapiens, 48 h, mean ± SD, three independent experiments. The procedure:
as §1, §2

What is called IC50 is the point on the concentration scale where inhibition reaches its midpoint. On to `Cc1ccc(NC(=O)[C@@H](Cc2ccccc2)NC(=S)NC(=O)[C@]2(C)CCC[C@]3(C)c4ccc(C(C)C)cc4CCC23)cc1` (stereo partly drawn) [Compound 9c, (1R,4aS)-7-Isopropyl-1,4a-dimethyl-N-(((R)-1-oxo-3-phenyl-1-(p-tolylamino)propan-2-yl)carbamothioyl)-1,2,3,4,4a,9,10,10a-octahydrophenanthrene-1-carboxamide], for which the concentration for half-maximal inhibition (IC50) with HL-7702 is 36.2 ± 1.39 µM; in the assay with SK-OV-3 it was 16.2 ± 1.98 µM; in the assay with MGC-803, 19.2 ± 1.66 µM; in the assay on HeLa, 19.1 ± 1.08 µM.

On to `CC(C)c1ccc2c(c1)CCC1[C@](C)(C(=O)NC(=S)N[C@H](Cc3ccccc3)C(=O)Nc3ccccc3Cl)CCC[C@]21C` (stereo partly drawn) [Compound 9d, (1R,4aS)-N-(((R)-1-((2-Chlorophenyl)amino)-1-oxo-3-phenylpropan-2-yl)carbamothioyl)-7-isopropyl-1,4a-dimethyl-1,2,3,4,4a,9,10,10a-octahydrophenanthrene-1-carboxamide], for which the half-maximal inhibitory concentration (IC50) with HL-7702 was found to be 36.5 ± 1.43 µM; in the assay on SK-OV-3 it was 16.9 ± 1.43 µM; in the assay with MGC-803, 20.4 ± 3.41 µM; in the assay with HeLa, 17 ± 1.76 µM.

With `CC(C)c1ccc2c(c1)CCC1[C@](C)(C(=O)NC(=S)N[C@H](Cc3ccccc3)C(=O)Nc3ccc(Cl)cc3)CCC[C@]21C` (stereo partly drawn) [Compound 9e, (1R,4aS)-N-(((R)-1-((4-Chlorophenyl)amino)-1-oxo-3-phenylpropan-2-yl)carbamothioyl)-7-isopropyl-1,4a-dimethyl-1,2,3,4,4a,9,10,10a-octahydrophenanthrene-1-carboxamide], the IC50 with HL-7702 was 38.5 ± 1.22 µM; in the assay with SK-OV-3, 18.5 ± 1.27 µM; in the assay with MGC-803, 17.1 ± 2.87 µM; in the assay with HeLa it was 17.2 ± 1.25 µM.

Turning to `COc1ccccc1NC(=O)[C@@H](Cc1ccccc1)NC(=S)NC(=O)[C@]1(C)CCC[C@]2(C)c3ccc(C(C)C)cc3CCC12` (stereo partly drawn) [Compound 9f, (1R,4aS)-7-Isopropyl-N-(((R)-1-((2-methoxyphenyl)amino)-1-oxo-3-phenylpropan-2-yl)carbamothioyl)-1,4a-dimethyl-1,2,3,4,4a,9,10,10a-octahydrophenanthrene-1-carboxamide], the IC50 is 38.4 ± 1.45 µM with HL-7702, 18.9 ± 1.72 µM with SK-OV-3, 20.7 ± 1.41 µM in the assay with MGC-803 and 28.1 ± 2.23 µM in the assay with HeLa.

In the case of `COc1ccc(NC(=O)[C@@H](Cc2ccccc2)NC(=S)NC(=O)[C@]2(C)CCC[C@]3(C)c4ccc(C(C)C)cc4CCC23)cc1` (stereo partly drawn) [Compound 9g, (1R,4aS)-7-Isopropyl-N-(((R)-1-((4-methoxyphenyl)amino)-1-oxo-3-phenylpropan-2-yl)carbamothioyl)-1,4a-dimethyl-1,2,3,4,4a,9,10,10a-octahydrophenanthrene-1-carboxamide], the IC50 with HL-7702 came to 41.1 ± 1.32 µM; with SK-OV-3, 20.1 ± 1.78 µM; in the assay with MGC-803 it was 26.1 ± 2.63 µM; in the assay with HeLa it was 15.6 ± 1.53 µM.

As for `CC(C)c1ccc2c(c1)CCC1[C@](C)(C(=O)NC(=S)N[C@H](Cc3ccccc3)C(=O)Nc3ccccc3F)CCC[C@]21C` (stereo partly drawn) [Compound 9h, (1R,4aS)-N-(((R)-1-((2-Fluorophenyl)amino)-1-oxo-3-phenylpropan-2-yl)carbamothioyl)-7-isopropyl-1,4a-dimethyl-1,2,3,4,4a,9,10,10a-octahydrophenanthrene-1-carboxamide], the half-inhibitory concentration (IC50) in the assay on HL-7702 was found to be 49.4 ± 2.64 µM; with SK-OV-3 it was 28.8 ± 2.32 µM; with MGC-803, 24.7 ± 3.33 µM; with HeLa, 18.8 ± 1.45 µM.

As to `CC(C)c1ccc2c(c1)CCC1[C@](C)(C(=O)NC(=S)N[C@H](Cc3ccccc3)C(=O)Nc3ccc(F)cc3)CCC[C@]21C` (stereo partly drawn) [Compound 9i, (1R,4aS)-N-(((R)-1-((4-Fluorophenyl)amino)-1-oxo-3-phenylpropan-2-yl)carbamothioyl)-7-isopropyl-1,4a-dimethyl-1,2,3,4,4a,9,10,10a-octahydrophenanthrene-1-carboxamide], the half-maximal inhibitory concentration (IC50) in the assay with HL-7702 was 46.4 ± 2.44 µM; in the assay with SK-OV-3, 26.5 ± 2.07 µM; with MGC-803, 21.4 ± 1.88 µM; with HeLa, 23.7 ± 1.01 µM.

Consider `CC(C)c1ccc2c(c1)CCC1[C@](C)(C(=O)NC(=S)N[C@H](Cc3ccccc3)C(=O)Nc3ccccc3Br)CCC[C@]21C` (stereo partly drawn) [Compound 9j, (1R,4aS)-N-(((R)-1-((2-Bromophenyl)amino)-1-oxo-3-phenylpropan-2-yl)carbamothioyl)-7-isopropyl-1,4a-dimethyl-1,2,3,4,4a,9,10,10a-octahydrophenanthrene-1-carboxamide], for which the half-maximal inhibitory concentration (IC50) in the assay with HL-7702 came out at 60.5 ± 3.43 µM; in the assay on SK-OV-3 it was 40.3 ± 3.41 µM; in the assay with MGC-803, 21.3 ± 1.27 µM; with HeLa, 12.7 ± 1.03 µM.

Consider `CC(C)c1ccc2c(c1)CCC1[C@](C)(C(=O)NC(=S)N[C@H](Cc3ccccc3)C(=O)Nc3ccc(Br)cc3)CCC[C@]21C` (stereo partly drawn) [Compound 9k, (1R,4aS)-N-(((R)-1-((4-Bromophenyl)amino)-1-oxo-3-phenylpropan-2-yl)carbamothioyl)-7-isopropyl-1,4a-dimethyl-1,2,3,4,4a,9,10,10a-octahydrophenanthrene-1-carboxamide], for which the concentration for half-maximal inhibition (IC50) in the assay with HL-7702 came to 66.5 ± 4.48 µM; in the assay on SK-OV-3, 46.7 ± 4.76 µM; in the assay with MGC-803, 25.5 ± 2.47 µM; in the assay on HeLa it was 15.7 ± 1.13 µM.

For the molecule `Cc1cc(C)cc(NC(=O)[C@@H](Cc2ccccc2)NC(=S)NC(=O)[C@]2(C)CCC[C@]3(C)c4ccc(C(C)C)cc4CCC23)c1` (stereo partly drawn) [Compound 9l, (1R,4aS)-N-(((R)-1-((3,5-Dimethylphenyl)amino)-1-oxo-3-phenylpropan-2-yl)carbamothioyl)-7-isopropyl-1,4a-dimethyl-1,2,3,4,4a,9,10,10a-octahydrophenanthrene-1-carboxamide], the half-inhibitory concentration (IC50) in the assay with HL-7702 turned out to be 53.4 ± 2.24 µM; in the assay on SK-OV-3, 31.5 ± 2.23 µM; with MGC-803, 18.1 µM; with HeLa, 15.8 ± 1.55 µM.

As for `CC(C)c1ccc2c(c1)CCC1[C@](C)(C(=O)NC(=S)N[C@H](Cc3ccccc3)C(=O)Nc3cccc4ccccc34)CCC[C@]21C` (stereo partly drawn) [Compound 9m, (1R,4aS)-7-Isopropyl-1,4a-dimethyl-N-(((R)-1-(naphthalen-1-ylamino)-1-oxo-3-phenylpropan-2-yl)carbamothioyl)-1,2,3,4,4a,9,10,10a-octahydrophenanthrene-1-carboxamide], the IC50 in the assay on HL-7702 is 35.6 ± 1.53 µM; in the assay on SK-OV-3, 15.3 ± 1.73 µM; in the assay with MGC-803, 22.9 ± 1.66 µM; in the assay with HeLa, 12.8 ± 1.2 µM.

For `COc1cc(NC(=O)[C@@H](Cc2ccccc2)NC(=S)NC(=O)[C@]2(C)CCC[C@]3(C)c4ccc(C(C)C)cc4CCC23)cc(OC)c1OC` (stereo partly drawn) [Compound 9o, (1R,4aS)-7-Isopropyl-1,4a-dimethyl-N-(((R)-1-oxo-3-phenyl-1-((3,4,5-trimethoxyphenyl)amino)propan-2-yl)carbamothioyl)-1,2,3,4,4a,9,10,10a-octahydrophenanthrene-1-carboxamide], the concentration for half-maximal inhibition (IC50) with HL-7702 came to 59.3 ± 2.54 µM; with SK-OV-3, 29.3 ± 2.04 µM; in the assay on MGC-803 it was 29.3 ± 2.09 µM; with HeLa it was 17.5 ± 1.54 µM.
